# Patent US8822449B2, “Substituted aminoindanes and analogs thereof, and the pharmaceutical use thereof” (Sanofi, priority 2008, dated 2014)
# Target: T1, sodium-proton exchanger of subtype 3 (NHE3) (Homo sapiens, UniProt P48764)
# T1 construct: expressed in transfected cells
# T1 sequence (P48764 26-834): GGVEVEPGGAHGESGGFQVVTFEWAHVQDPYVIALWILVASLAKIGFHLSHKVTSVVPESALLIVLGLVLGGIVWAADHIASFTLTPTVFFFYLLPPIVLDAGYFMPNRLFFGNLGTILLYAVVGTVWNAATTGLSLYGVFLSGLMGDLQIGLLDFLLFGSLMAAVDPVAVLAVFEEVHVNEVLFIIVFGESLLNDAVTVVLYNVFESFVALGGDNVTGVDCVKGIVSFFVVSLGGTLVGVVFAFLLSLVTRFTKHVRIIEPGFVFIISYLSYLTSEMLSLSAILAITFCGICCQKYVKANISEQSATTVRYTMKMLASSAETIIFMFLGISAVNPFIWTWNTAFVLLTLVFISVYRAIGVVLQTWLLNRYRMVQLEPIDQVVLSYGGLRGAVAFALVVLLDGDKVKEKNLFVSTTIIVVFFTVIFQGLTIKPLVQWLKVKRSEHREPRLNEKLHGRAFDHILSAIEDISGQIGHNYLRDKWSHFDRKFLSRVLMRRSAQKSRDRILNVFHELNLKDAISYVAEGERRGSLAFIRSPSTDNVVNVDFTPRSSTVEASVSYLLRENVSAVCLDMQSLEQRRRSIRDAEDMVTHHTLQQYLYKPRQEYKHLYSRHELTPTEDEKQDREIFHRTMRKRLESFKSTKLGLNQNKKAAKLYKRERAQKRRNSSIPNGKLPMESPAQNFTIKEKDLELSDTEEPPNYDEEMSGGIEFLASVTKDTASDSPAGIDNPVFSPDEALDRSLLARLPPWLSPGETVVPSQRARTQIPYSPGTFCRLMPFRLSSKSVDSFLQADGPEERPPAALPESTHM
# Assay: Recovery of intracellular pH (pHi) after acidification in LAP1 cells stably expressing NHE3 (BCECF fluorescence, FLIPR)
# Format: cell-based
# Conditions: LAP1 cells stably expressing NHE3; pH recovery after acidification; range 1 is % inhibition at 10 μM; read-out: Activity range (inhibitory effect on NHE3)
IC50 [nM],inhibition at 10 µM [%],Structure (SMILES)
1000 to 10000,–,"Cc1cc(F)ccc1O[C@@H]1c2ccccc2C[C@H]1N1C[C@H]2CNC[C@H]2C1 (racemic) [Example 16, 2-[rac-trans-(1,2)-1-(4-fluoro-2-methylphenoxy)indan-2-yl]octahydropyrrolo[3,4-c]pyrrole]"
–,20 to 50,"COc1cc(Cl)ccc1O[C@H]1c2ccccc2CC[C@@H]1N1CCC[C@@H](N)C1 (racemic) [Example 64, (R)-1-[rac-trans-(1,2)-1-(4-chloro-2-methoxyphenoxy)-1,2,3,4-tetrahydronaphthalen-2-yl]piperidin-3-ylamine]"
< 1000,–,"NS(=O)(=O)c1ccc(O[C@@H]2c3ccccc3C[C@H]2NCC2CCC2)c(F)c1 (racemic) [Example 718, 4-[rac-trans-(1,2)-2-(Cyclobutylmethyl-amino)-indan-1-yloxy]-3-fluoro-benzenesulfonamide]"
1000 to 10000,–,"NCC1CCN([C@@H]2Cc3ccccc3[C@H]2Oc2ccc(S(N)(=O)=O)c(Cl)c2Cl)CC1 (racemic) [Example 545, 4-[rac-trans-(1,2)-2-(4-aminomethylpiperidin-1-yl)indan-1-yloxy]-2,3-dichlorobenzenesulfonamide]"
–,20 to 50,"Cc1ccc(F)c(O[C@H]2c3ccccc3CC[C@@H]2N2CCC[C@H](N)C2)c1 (racemic) [Example 155, (S)-1-[rac-trans-(1,2)-1-(2-fluoro-5-methylphenoxy)-1,2,3,4-tetrahydronaphthalen-2-yl]piperidin-3-ylamine]"
1000 to 10000,–,"N[C@@H]1CCCN([C@@H]2Cc3ccccc3[C@H]2Oc2ccc3c(c2)OCO3)C1 (racemic) [Example 83, (R)-1-[rac-trans-(1,2)-1-(benzo[1,3]dioxol-5-yloxy)indan-2-yl]piperidin-3-ylamine]"
1000 to 10000,–,"NCC1CCN([C@@H]2Cc3ccccc3[C@H]2Oc2ccc(S(N)(=O)=O)c(Cl)c2Cl)C1 (mixture of isomers) [Example 538, 4-[rac-trans-(1,2)-2-(3-aminomethylpyrrolidin-1-yl)indan-1-yloxy]-2,3-dichlorobenzenesulfonamide]"
1000 to 10000,–,"CC(=O)Nc1ccc(OC2c3ccccc3CC2N2CCCC2)cc1 (racemic) [Example 666, N-[4-(rac-trans-(1,2)-2-pyrrolidin-1-ylindan-1-yloxy)phenyl]acetamide]"
< 1000,–,"Cc1nnc(C)n1-c1ccc(O[C@H]2c3cc(Cl)ccc3C[C@@H]2N2CC[C@@H](F)C2)c(F)c1 [Example 563, 4-{4-[trans-(1S,2S)-6-chloro-2-((R)-3-fluoropyrrolidin-1-yl)indan-1-yloxy]-3-fluorophenyl}-3,5-dimethyl-4H-[1,2,4]triazole]"
1000 to 10000,–,"COc1cccc(F)c1O[C@@H]1c2ccccc2C[C@H]1N(C)C1CCNCC1 (racemic) [Example 215, [rac-trans-(1,2)-1-(2-fluoro-6-methoxyphenoxy)indan-2-yl]methylpiperidin-4-ylamine]"
1000 to 10000,–,"NCC1CCN([C@@H]2Cc3ccccc3[C@H]2Oc2ccc(F)cc2F)C1 (mixture of isomers) [Example 602, C-{1-[rac-trans-(1,2)-1-(2,4-difluorophenoxy)indan-2-yl]pyrrolidin-3-yl}methylamine]"

# Continued, compound first:
Structure (SMILES),IC50 [nM],inhibition at 10 µM [%]
"O=S1(=O)CCCN1c1cccc(O[C@H]2c3cc(Cl)cc(Cl)c3C[C@@H]2N2CC[C@@H](O)C2)c1 [Example 123, (R)-1-{trans-(1S,2S)-4,6-dichloro-1-[3-(1,1-dioxo-1lambda6-isothiazolidin-2-yl)phenoxy]indan-2-yl}pyrrolidin-3-ol]",1000 to 10000,–
"CN1CCN(c2ccc(Cl)c(O[C@H]3c4cc(Cl)cc(F)c4C[C@@H]3N3CC[C@@H](O)C3)c2)C1=O [Example 340, 1-{4-chloro-3-[(1S,2S)-6-chloro-4-fluoro-2-((R)-3-hydroxypyrrolidin-1-yl)indan-1-yloxy]phenyl}-3-methylimidazolidin-2-one]",< 1000,–
"NS(=O)(=O)c1ccc(O[C@H]2c3cc(Cl)cc(F)c3C[C@@H]2NC2CCCC2)c(F)c1 [Example 750, 4-(trans-(1S,2S)-6-Chloro-2-cyclopentylamino-4-fluoro-indan-1-yloxy)-3-fluoro-benzenesulfonamide]",1000 to 10000,–
"COc1cccc(F)c1O[C@@H]1c2cc(Cl)cc(Cl)c2C[C@H]1N1CCC[C@@H](N)C1 [Example 94, (R)-1-[trans-(1R,2R)-4,6-dichloro-1-(2-fluoro-6-methoxyphenoxy)indan-2-yl]piperidin-3-ylamine]",–,20 to 50
"Cc1c(O[C@H]2c3cc(Cl)cc(Cl)c3C[C@@H]2N2CC[C@@H](O)C2)cccc1-n1ccn(C)c1=O [Example 312, 1-{3-[(1S,2S)-4,6-dichloro-2-((R)-3-hydroxypyrrolidin-1-yl)indan-1-yloxy]-2-methylphenyl}-3-methyl-1,3-dihydroimidazol-2-one]",–,20 to 50
"CS(=O)(=O)c1ccc(O[C@H]2c3cc(Cl)cc(Cl)c3C[C@@H]2N2CC[C@@H](O)C2)cc1 [Example 103, (R)-1-[trans-(1S,2S)-4,6-dichloro-1-(4-methanesulfonylphenoxy)indan-2-yl]pyrrolidin-3-ol]",< 1000,–
"CN(C)C1Cc2ccccc2C1Oc1ccc(S(N)(=O)=O)c(Cl)c1Cl (racemic) [Example 356, 2,3-dichloro-4-(rac-trans-(1,2)-2-dimethylaminoindan-1-yloxy)benzenesulfonamide]",< 1000,–
"Clc1cc(Cl)c2c(c1)[C@H](Oc1ccc(-n3cncn3)cc1)[C@@H](N1CCNCC1)C2 (racemic) [Example 276, 1-[rac-trans-(1,2)-4,6-dichloro-1-(4-[1,2,4]triazol-1-ylphenoxy)indan-2-yl]piperazine]",< 1000,–
"c1ccc2c(c1)CC[C@H](N1CCOCC1)[C@H]2Oc1cnc2ccccc2c1 (racemic) [Example 400, 3-(rac-trans-(1,2)-2-morpholin-4-yl-1,2,3,4-tetrahydronaphthalen-1-yloxy)quinoline]",–,20 to 50
"Cc1nnc(C)n1-c1ccc(O[C@H]2c3ccccc3C(C)(C)[C@@H]2N2CCCC2)cc1 (racemic) [Example 497, 4-[4-(rac-trans-(1,2)-3,3-dimethyl-2-pyrrolidin-1-ylindan-1-yloxy)phenyl]-3,5-dimethyl-4H-[1,2,4]triazole]",–,20 to 50
"Cn1ccn(-c2cccc(O[C@H]3c4cc(Cl)cc(Cl)c4C[C@@H]3N3CCNCC3)c2)c1=O (racemic) [Example 257, 1-[3-(rac-trans-(1,2)-4,6-dichloro-2-piperazin-1-ylindan-1-yloxy)phenyl]-3-methyl-1,3-dihydroimidazol-2-one]",< 1000,–
"N[C@@H]1CCCN([C@H]2Cc3c(Cl)cc(Cl)cc3[C@@H]2Oc2ccc(S(N)(=O)=O)cc2)C1 [Example 480, 4-[(1S,2S)-2-((R)-3-aminopiperidin-1-yl)-4,6-dichloroindan-1-yloxy]benzenesulfonamide]",< 1000,–
"Cc1nnc(C)n1-c1ccc(O[C@H]2c3ccccc3C[C@@H]2N2CCC[C@@H](NCCC(F)(F)F)C2)cc1 [Example 1, ((R)-1-{trans-(1S,2S)-1-[4-(3,5-dimethyl-[1,2,4]triazol-4-yl)phenoxy]indan-2-yl}piperidin-3-yl)-(3,3,3-trifluoropropyl)amine]",1000 to 10000,–
"CCCC1(N)CCCN([C@H]2Cc3c(Cl)cc(Cl)cc3[C@@H]2Oc2cccc(NC(C)=O)c2)C1 (mixture of isomers) [Example 693, N-{3-[trans-(1S,2S)-2-(3-amino-3-propylpiperidin-1-yl)-4,6-dichloroindan-1-yloxy]phenyl}acetamide]",< 1000,–
